Data as given in paper PMC6928678, “Simplified Head-to-Tail Cyclic Polypeptides as Biomaterial-Associated Antimicrobials with Endotoxin Neutralizing and Anti-Inflammatory Capabilities” (International Journal of Molecular Sciences, 2019).
Converted amounts (≈) assume the structure as drawn. Where a SMILES comes first, the peptide text is derived from it. [ ]: non-standard residue; d: D form. Orn = NCCC[C@H](N)C(=O)O

Columns and labels:
S. aureus 25923 = test: microbe, parasite or virus in culture; type: cell-based, Staphylococcus aureus; details: 25923, 20 h
Procedure: (§1) The test strains, including Gram-negative E. coli ATCC25922, E. coli ATCC 1005, S. typhimurium C7731, P. aeruginosa ATCC 27853, S. Typhimurium 14028, Gram-positive S. aureus ATCC29213, S. aureus ATCC 25923, S. epidermidis ATCC 12228 and S. aureus 43300, were obtained from the School of Veterinary Medicine, Northeast Agricultural University (Harbin, China).
(§2) Briefly, the bacteria were incubated overnight at 37 °C with constant shaking at 220 rpm, then were transferred to new MH broth (MHB) medium until they reached the logarithmic phase of growth. The bacteria were then diluted to 10^5 (CFU)/mL in MHB. The peptides were dissolved and diluted in 0.01% acetic acid and 0.2% bovine serum albumin (BSA) at various concentrations (0.5–128 μM) in each well of sterile 96-well plates and incubated for 20 h at 37 °C. […] The test was repeated three times.

S. aureus 29213 = test: microbe, parasite or virus in culture; type: cell-based, Staphylococcus aureus; details: 29213, 20 h
Procedure: as §1, §2

[1] = system: gram-negative strains tested; test: Geometric mean of MICs, gram-negative strains; type: cell-based; details: 5 gram-negative strains; >128 apparently counted as 256; read-out: nGM (–), geometric mean of the MICs against gram-negative strains
Procedure: as §2

E. coli ATCC 25,922 [2] = test: Swimming motility assay; type: cell-based; details: 0.3% agar; OIR3, IR3, DIR3 at 4 μM and 8 μM; GS at all tested concentrations (1–8 µM)
Procedure: Figure 10 Swimming motility of E. coli ATCC 25,922 treated with OIR3, IR3, DIR3 and GS. Swim plates were prepared using 0.3% agar and inoculated from overnight cultures standardized to an optical density at 600 nm of 1.0. Images were taken after 20 h incubation at 37 °C. Data shown are the mean ± SD of three independent experiments.
Since E. coli ATCC 25,922 cell walls have flagella, their swimming motility can be measured in LB medium containing 0.3% agar. E. coli ATCC 25,922 bacteria were incubated overnight at 37 °C in a shaker until the OD600 = 1.0, then inoculated into 0.3% agar medium containing 1 µM, 2 µM, 4 µM or 8 µM of antimicrobial peptide and incubated again overnight at 37 °C. The swimming motility for each was then measured; each experiment was repeated three times.

LPS = test: Surface plasmon resonance of peptide-LPS interaction; type: binding; details: peptide on CM5 chip, LPS 3.125–50 µg/mL, 20 mM Tris, 100 mM NaCl, pH 7.4
Procedure: Figure 3 (A) The combining ability of OIR3 and gramicidin S (GS; 0.5 μM, 1 μM, 2 μM, […], 8 μM, 16 μM and 32 μM) with lipopolysaccharide (LPS). (B) SPR spectroscopy of the interaction kinetics of the peptides and LPS. The peptides were immobilized on a CM5 sensor chip as a ligand, and LPS was diluted in a series of concentrations (3.125, 6.25, 12.5, 25 and 50 μg/mL). Data shown are three independent experiments.
Surface plasmon resonance (SPR) is a method commonly used to study protein–protein interactions. The main advantage of SPR is that it provides the ability to measure the binding affinities and association/dissociation kinetics of complexes in real time, in a label-free environment, and using relatively small quantities of materials. Real-time binding interactions between peptides and LPS were measured by using the Biacore 3000 instrument (GE Healthcare, Waukesha, Wisconsin, USA). In […] sodium acetate buffer (pH 5.5), the cyclic antimicrobial peptides OIR3, IR3, DIR3 and GS were diluted to an optimum fixed concentration of 25.6 µM, and then covalently immobilized on the CM5 sensor chip; nearly 1100 resonant units (RU) of the peptide were captured. All measurements were performed in 20 mM Tris buffer (pH 7.4) containing 100 mM NaCl. […]

[3] = system: all the 9 bacteria tested; test: Geometric mean of MICs, all 9 bacteria; type: cell-based; details: for GM MIC (range of Gram-negative and Gram-positive geometric means): Table 2; for tGM, geometric mean of the MICs against all the 9 bacteria: all 9 bacteria tested
Procedure: as §2

[4] = system: oxazolone-induced ear edema; test: Oxazolone-induced skin inflammation (allergic dermatitis model); details: for ear thickness and ear punch weight: mice, topical 0.5%, 1% or 2% w/v on right ear, 24 h after treatment
Procedure: ICR mice (male, 4–6 weeks old, and 18–22 g) were obtained from the Experimental Animal Center of Harbin Medical University.
4-Ethoxymethylene-2-phenyl-2-oxazolin-5-one (oxazolone, OXA) was used to induce ear edema in mice [66]. […] The fur was clipped from each animal’s abdomen the day before the experiment was conducted. On the day of the experiment (day 0), 50 ul 3% oxazolone induction solution (prepared in a 5:1 (v/v) mixture of acetone: corn oil carrier) was applied to all mice as a single topical application to the shaved abdomen. After 5 days, 50 µL of 1% oxazolone challenge solution (prepared in acetone) was applied as a single topical application to the dorsal area of the right ear for 1 h. Of the peptide solution, vehicle control or positive control (dexamethasone) solution 20 µL was applied topically to the dorsal area of the right ear. The left ear was used as a control. 24 h later, the mice were euthanized by cervical dislocation under ether anesthesia, and two ear punches (6 mm, i.d.) were collected and weighed. The degree of edema and the increase in ear thickness were determined by the increase in the weight and thickness of the right ear punch when compared with that of the left ear.
(4) Ear weight increase %=[Right ear weight (mg)− Left ear weight (mg)]/Left ear weight (mg)× 100%
(5) Increase of the ear thickness% =Right ear thickness (mm)−Left ear thinkcess (mm)/Left ear thickness×100%
Mouse ear tissues were ground in liquid nitrogen and 1 mL of Trizol was added. The total RNA content in each group of ears was extracted using the conventional Trizol method. qRT-PCR was used to measure the mRNA level of inflammatory cytokines TNF-α, IL-6 and IL-1β in mouse ear tissues. One microgram total of RNA was reverse transcribed using M-MLV reverse transcriptase (Takara, Japan). qRT-PCR was performed using a SYBR Green Mix kit (Takara, Japan) with a 7500 Real-Time PCR system according to the manufacturer’s instructions. The mRNA expression levels were normalized to β-actin using the (2^−∆∆Ct) method. The gene expression was normalized to the corresponding mGAPDH level. […]

[5] = system: gram-positive strains tested; test: organism not typed; type: cell-based; details: 20 h
Procedure: as §2

E. coli UB 1005 = test: microbe, parasite or virus in culture; type: cell-based, Escherichia coli; details: UB 1005, 20 h
Procedure: as §1, §2

E. coli 25922 = test: microbe, parasite or virus in culture; type: cell-based, Escherichia coli; details: 25922, 20 h
Procedure: as §1, §2

E. coli ATCC 25,922 [6] = test: Flow cytometry membrane integrity assay (PI uptake); type: cell-based; details: PI 10 ug/mL, 30 min at 4 °C
Procedure: Figure 7 Flow cytometric analysis. Exponential phase E. coli cells were treated with GS, OIR3 and cellular fluorescence was analyzed by flow cytometry.
Membrane integrity assay. […] FACS flow cytometer (Becton–Dickinson, Franklin Lake, New Jersey, USA USA) was used to obtain the data with a laser excitation wavelength of 488 nm.

MRSA43300 = test: microbe, parasite or virus in culture; type: cell-based, Methicillin-resistant Staphylococcus aureus; details: 20 h
Procedure: as §1, §2

Compound | MIC (S. aureus 25923) | MIC (S. aureus 29213) | MIC [1] | inhibition of swimming motility (E. coli ATCC 25,922 [2]) | binding of LPS to immobilized peptide (SPR) (LPS) | GM MIC (range of Gram-negative and Gram-positive geometric means) [3] | tGM, geometric mean of the MICs against all the 9 bacteria [3] | ear thickness and ear punch weight [4] | pGM (+), geometric mean of the MICs against gram-positive strains [5] | MIC (E. coli UB 1005) | MIC (E. coli 25922) | percentage of PI-positive cells (E. coli ATCC 25,922 [6]; 1/2× MIC (OIR3 1 µM, GS 2 µM)) | percentage of PI-positive cells (E. coli ATCC 25,922 [6]; 1× MIC (OIR3 2 µM, GS 4 µM)) | percentage of PI-positive cells (E. coli ATCC 25,922 [6]; 2× MIC (OIR3 4 µM, GS 8 µM)) | MIC (MRSA43300) | expression of mRNA of TNF-α, IL-1β and IL-6 in mouse ear tissue ([4]; qRT-PCR, oxazolone-induced skin inflammation)
CC(C)C[C@@H]1NC(=O)[C@H](CCCN)NC(=O)[C@H](C(C)C)NC(=O)[C@@H]2CCCN2C(=O)[C@@H](Cc2ccccc2)NC(=O)[C@H](CC(C)C)NC(=O)[C@H](CCCN)NC(=O)[C@H](C(C)C)NC(=O)[C@@H]2CCCN2C(=O)[C@@H](Cc2ccccc2)NC1=O [GS, gramicidin S, reference compound] (cyclo(V[Orn]L[dF]PV[Orn]L[dF]P)) | 2 µM (≈ 2.28 µg/mL) | 2 µM (≈ 2.28 µg/mL) | 6.1 µM (≈ 6.96 µg/mL) | almost no inhibition | weak binding to LPS at high concentrations and almost no binding at the low concentrations | 2 to 6.1 µM | 3.7 µM | increased | 2 µM | 4 µM (≈ 4.57 µg/mL) | 4 µM (≈ 4.57 µg/mL) | 7.3% | 37.8% | 93.3% | 2 µM (≈ 2.28 µg/mL) | 
CC[C@H](C)[C@@H]1NC(=O)[C@H](CCCNC(=N)N)NC(=O)[C@H]([C@@H](C)CC)NC(=O)[C@@H]2CCCN2C(=O)[C@H](CCCNC(=N)N)NC(=O)[C@H]([C@@H](C)CC)NC(=O)[C@H](CCCNC(=N)N)NC(=O)[C@H]([C@@H](C)CC)NC(=O)[C@H](CCCNC(=N)N)NC(=O)[C@H]([C@@H](C)CC)NC(=O)[C@@H]2CCCN2C(=O)[C@H](CCCNC(=N)N)NC(=O)[C@H]([C@@H](C)CC)NC(=O)[C@H](CCCNC(=N)N)NC1=O [OIR3] (cyclo(IRIRIRPIRIRIRP)) | 4 µM (≈ 7.24 µg/mL) | 4 µM (≈ 7.24 µg/mL) | 3.5 µM (≈ 6.34 µg/mL) | significantly inhibit | rapidly binds | 3.5 to 4.0 µM | 3.7 µM | significantly reduced | 4.0 µM | 2 µM (≈ 3.62 µg/mL) | 2 µM (≈ 3.62 µg/mL) | 25% | 62% | 76.4% | 4 µM (≈ 7.24 µg/mL) | significantly down-regulated
